Columns and labels:
Assay type in all cases: cell-based, human
PDGF-D = PDGF-D expression in NK cells (qPCR, flow cytometry, immunoblotting, ELISA)
Protocol: FIGS. 5A-5J. IL-15 induces PDGF-D expression in an autocrine manner. (A) mRNA levels of PDGFA, PDGFB, PDGFC, and PDGF-D in T cells, B cells, and NK cells were analyzed using the BioGPS online tool. (B) mRNA levels of PDGFA, PDGFB, PDGFC, and PDGF-D in T cells, B cells, and NK cells were examined by qPCR (n=10). (C) Primary NK cells were treated with IL-15 (10 ng/ml) for the indicated times. mRNA levels of PDGF-D were examined by qPCR (n=3). (D-E) Representative dot plots and percentages of PDGF-D levels in NK cells after IL-15 (50 ng/ml) treatment for 24 h. Resting NK cells were used as control (n=5). […] (I-J) Binding of p65 to the PDGF-D promoter in IL-15 treated (I) or resting NK cells (J) as determined by ChIP-qPCR (n=3). Data represent three independent experiments. Data shown are means±SD. […]
(§1) Cells were stained with the indicated cell-surface markers and/or fixed/permeabilized using a Fixation/Permeabilization Kit (eBioscience). […] Data were analyzed using NovoExpress software (Agilent Technologies).
RNA was isolated using an RNeasy Mini Kit (QIAGEN) and reversely transcribed to cDNA with a PrimeScript RT Reagent Kit with gDNA Eraser (Takara Bio) according to the manufacturer's protocol. mRNA expression levels were analyzed using SYBR Green qPCR Master Mix and a QuantStudio 12K Flex Real-Time PCR System (both from Thermo Fisher Scientific). […]

NK cells [1] = assay: NK cell effector functions and surface receptors, flow cytometry; settings: IL-15-primed NK cells (10 ng/ml), PDGF ligand 50 ng/ml, 48 h
Protocol: FIGS. 3A-3K. […] (A-E) Primary NK cells were treated with IL-15 (10 ng/ml) in the presence of PDGF-B (50 ng/ml) or PDGF-D (50 ng/ml) for 48 h. Expression levels of IFN-γ, TNF-α, granzyme B, perforin, and CD107a were examined by flow cytometry (n=5). (F-K) Primary NK cells were treated with IL-15 (10 ng/ml) plus PDGF-D (50 ng/ml) in the presence of anti-NKp44 (10 βg/ml) or anti-PDGFRβ (10 μg/ml) for 48 h. Expression levels of IFN-γ, TNF-α, and CD107a were examined by flow cytometry (n=3). Data represent three independent experiments. Data shown are means±SD. NS, not significant. *P<0.05, **P<0.01, and ***P<0.001.
FIGS. 10A-10K. […] (A-E) Representative histograms and summary data of IFN-γ, TNF-α, granzyme B, perforin, and CD107a in PDGFRβ^+ and PDGFRβ^− NK cells. Cells were gated on CD56^+PDGFRβ^+ or CD56^+PDGFRβ^− cells. (F) PDGFRβ^+ and PDGFRβ^− NK cells were sorted by flow cytometry and co-cultured with ^51 Cr-labeled K562 cells in a 96-well V-bottom plate at ratios of 5:1, 2.5:1, or 1.25:1 for 4 h at 37° C. in a 5% CO2 incubator. The supernatant was harvested and analyzed using a microbeta scintillation counter (n=3). […]
as §1

NK cells [2] = assay: NK cell expansion in vitro, cell counts by trypan blue exclusion; settings: 7 days

| Substance | mRNA levels of PDGF-D in NK cells (PDGF-D; IL-15 10 ng/ml, qPCR) | protein levels of PDGF-D in NK cells (PDGF-D; IL-15 50 ng/ml 24 h, flow cytometry, immunoblotting, ELISA) | expression of IFN-γ, TNF-α, perforin, and CD107a (NK cells [1]) | expression of granzyme B (NK cells [1]) | expansion of primary NK cells transduced with PDGFRβ (NK cells [2]; IL-2 50 U/ml and PDGF-D 50 ng/ml) | NK cell expansion (NK cells [2]; primary NK cells, IL-15 10 ng/ml and PDGF-D 50 ng/ml) |
| --- | --- | --- | --- | --- | --- | --- |
| IL-15: recombinant human IL-15 (200-15); recombinant murine IL-15 in the mouse NK cell test | significantly increased | significantly increased | – | – | – | – |
| PDGF-D: recombinant human PDGF-DD (1159-SB-025), R&D Systems | – | – | induced | not granzyme B | enhanced the expansion | promoted cell expansion |

Reference: patent publication US20250017964A1, “ENGINEERING OR INDUCING PDGF AND/OR PDGFR SIGNALING TO ENHANCE NK CELL THERAPY” (City of Hope, priority 2021, published 2025)
